Positions count from the first letter of the chain named.
Legend:
Assay type in all cases: biochemical
[1] = target: T1, HXK-1 (Entamoeba nuttalli, UniProt C5NNG5); test: in-gel glucokinase activity stain after IEF or starch gel; conditions: ATP; G6PDH-coupled, NADPH-formazan read-out
T1 construct: native full-length enzyme in freeze-thaw lysate, resolved by IEF or starch gel
T1 sequence (C5NNG5 1-445): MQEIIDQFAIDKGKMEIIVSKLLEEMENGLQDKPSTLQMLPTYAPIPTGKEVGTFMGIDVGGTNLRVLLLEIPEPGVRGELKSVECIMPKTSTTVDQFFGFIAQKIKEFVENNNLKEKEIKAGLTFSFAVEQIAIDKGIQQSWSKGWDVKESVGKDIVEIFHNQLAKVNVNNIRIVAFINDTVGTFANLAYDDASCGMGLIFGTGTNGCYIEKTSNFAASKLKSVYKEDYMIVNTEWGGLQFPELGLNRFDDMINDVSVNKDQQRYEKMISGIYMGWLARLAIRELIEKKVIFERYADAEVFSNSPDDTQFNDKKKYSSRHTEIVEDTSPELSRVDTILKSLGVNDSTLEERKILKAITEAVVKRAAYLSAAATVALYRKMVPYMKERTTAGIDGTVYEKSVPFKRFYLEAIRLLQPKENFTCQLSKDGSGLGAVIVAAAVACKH

[2] = target: T2, HXK-1 (Entamoeba dispar, UniProt O09487); test: as above; conditions: ATP; G6PDH-coupled, NADPH-formazan read-out
T2 construct: gene hxk1; native full-length enzyme in freeze-thaw lysate, resolved by IEF or starch gel

[3] = target: T3, HXK-2 (Entamoeba nuttalli, UniProt C5NNG6); test: as above; conditions: ATP; G6PDH-coupled, NADPH-formazan read-out
T3 construct: gene ENUP19_0206G0024; native full-length enzyme in freeze-thaw lysate, resolved by IEF or starch gel
T3 sequence (C5NNG6 1-445): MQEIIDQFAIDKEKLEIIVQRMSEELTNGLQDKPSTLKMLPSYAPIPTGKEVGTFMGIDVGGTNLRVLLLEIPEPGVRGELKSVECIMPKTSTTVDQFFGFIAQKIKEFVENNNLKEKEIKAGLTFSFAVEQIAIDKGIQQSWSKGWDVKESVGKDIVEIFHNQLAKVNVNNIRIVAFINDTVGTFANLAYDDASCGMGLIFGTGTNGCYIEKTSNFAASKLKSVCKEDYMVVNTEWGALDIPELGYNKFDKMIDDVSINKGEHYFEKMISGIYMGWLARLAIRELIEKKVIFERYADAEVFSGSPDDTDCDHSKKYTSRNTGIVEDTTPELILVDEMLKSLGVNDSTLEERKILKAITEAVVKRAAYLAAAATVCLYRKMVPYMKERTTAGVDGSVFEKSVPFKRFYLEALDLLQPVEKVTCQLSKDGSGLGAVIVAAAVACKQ

[4] = target: T4, HXK-1 (Entamoeba histolytica, UniProt A0A8U0WP42); test: as above; conditions: ATP; G6PDH-coupled, NADPH-formazan read-out
T4 construct: gene EHI_098290; native full-length enzyme in freeze-thaw amoeba lysate, resolved by IEF or starch gel
T4 sequence (A0A8U0WP42 1-445): T1 sequence (C5NNG5 1-445) with G13E, V153I, V168I

[5] = target: T5, HXK-2 (Entamoeba histolytica, UniProt A0A8U0WP47); test: as above; conditions: ATP; G6PDH-coupled, NADPH-formazan read-out
T5 construct: gene EHI_098560; native full-length enzyme in freeze-thaw lysate, resolved by IEF or starch gel
T5 sequence (A0A8U0WP47 1-445): T3 sequence (C5NNG6 1-445) with V153I, V168I, V232I, I354M

[6] = target: T6, HXK-2 (Entamoeba dispar, UniProt O09488); test: as above; conditions: ATP; G6PDH-coupled, NADPH-formazan read-out
T6 construct: gene hxk2; native full-length enzyme in freeze-thaw lysate, resolved by IEF or starch gel
T6 sequence (O09488 1-445): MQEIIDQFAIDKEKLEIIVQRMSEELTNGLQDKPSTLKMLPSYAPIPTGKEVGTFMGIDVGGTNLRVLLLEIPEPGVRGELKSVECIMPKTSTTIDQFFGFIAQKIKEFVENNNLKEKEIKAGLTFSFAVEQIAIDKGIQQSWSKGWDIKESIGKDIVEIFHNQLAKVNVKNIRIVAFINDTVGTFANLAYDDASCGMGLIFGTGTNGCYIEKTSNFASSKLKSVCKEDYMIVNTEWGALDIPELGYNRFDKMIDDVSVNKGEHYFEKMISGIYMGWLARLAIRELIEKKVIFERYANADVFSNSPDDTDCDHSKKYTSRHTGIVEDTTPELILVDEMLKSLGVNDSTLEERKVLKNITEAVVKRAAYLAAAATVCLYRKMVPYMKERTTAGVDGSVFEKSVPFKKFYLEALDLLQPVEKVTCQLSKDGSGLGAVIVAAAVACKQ

[7] = target: T2, HXK-1; test: in-gel mannokinase activity stain after IEF; conditions: ATP; coupled with MPI, GPI and G6PDH XV, or directly with G6PDH II
[8] = target: T3, HXK-2; test: in-gel mannokinase activity stain after IEF; conditions: ATP; coupled with MPI, GPI and G6PDH XV, or directly with G6PDH II
[9] = target: T6, HXK-2; test: in-gel mannokinase activity stain after IEF; conditions: ATP; coupled with MPI, GPI and G6PDH XV, or directly with G6PDH II
[10] = target: T4, HXK-1; test: in-gel mannokinase activity stain after IEF; conditions: ATP; coupled with MPI, GPI and G6PDH XV, or directly with G6PDH II
[11] = target: T5, HXK-2; test: in-gel mannokinase activity stain after IEF; conditions: ATP; coupled with MPI, GPI and G6PDH XV, or directly with G6PDH II
[12] = target: T1, HXK-1; test: in-gel mannokinase activity stain after IEF; conditions: ATP; coupled with MPI, GPI and G6PDH XV, or directly with G6PDH II

T2 sequence (O09487 entry or part of it): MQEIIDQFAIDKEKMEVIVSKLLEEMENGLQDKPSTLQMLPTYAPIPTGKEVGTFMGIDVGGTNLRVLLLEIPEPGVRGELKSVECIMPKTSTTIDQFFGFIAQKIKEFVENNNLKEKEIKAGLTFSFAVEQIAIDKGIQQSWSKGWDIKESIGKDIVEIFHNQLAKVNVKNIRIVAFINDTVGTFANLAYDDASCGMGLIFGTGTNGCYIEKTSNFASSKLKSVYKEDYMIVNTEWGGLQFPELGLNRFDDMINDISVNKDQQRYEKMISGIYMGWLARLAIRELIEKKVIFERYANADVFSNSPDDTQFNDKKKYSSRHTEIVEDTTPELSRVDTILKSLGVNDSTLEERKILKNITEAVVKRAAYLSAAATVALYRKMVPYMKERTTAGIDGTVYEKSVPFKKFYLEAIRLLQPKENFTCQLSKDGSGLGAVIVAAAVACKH

Question: What does the source list for OC[C@H]1OC(O)[C@H](O)[C@@H](O)[C@@H]1O (stereo partly drawn) [glucose]?
Answer: in-gel glucokinase activity stain after IEF or starch gel [1]: substrate specificity of the HXKs of the six strains of Entamoeba spp. to phosphorylated glucose; in-gel glucokinase activity stain after IEF or starch gel [2]: substrate specificity of the HXKs of the six strains of Entamoeba spp. to phosphorylated glucose; in-gel glucokinase activity stain after IEF or starch gel [3]: substrate specificity of the HXKs of the six strains of Entamoeba spp. to phosphorylated glucose; in-gel glucokinase activity stain after IEF or starch gel [4]: substrate specificity of the HXKs of the six strains of Entamoeba spp. to phosphorylated glucose; in-gel glucokinase activity stain after IEF or starch gel [5]: substrate specificity of the HXKs of the six strains of Entamoeba spp. to phosphorylated glucose; in-gel glucokinase activity stain after IEF or starch gel [6]: substrate specificity of the HXKs of the six strains of Entamoeba spp. to phosphorylated glucose

Question: What does the source list for OC[C@H]1OC(O)[C@@H](O)[C@@H](O)[C@@H]1O (stereo partly drawn) [mannose]?
Answer: in-gel mannokinase activity stain after IEF [7]: no differences in mannokinase activity were observed between the isoenzymes HXK-1 and HXK-2; in-gel mannokinase activity stain after IEF [8]: no differences in mannokinase activity were observed between the isoenzymes HXK-1 and HXK-2; in-gel mannokinase activity stain after IEF [9]: no differences in mannokinase activity were observed between the isoenzymes HXK-1 and HXK-2; in-gel mannokinase activity stain after IEF [10]: no differences in mannokinase activity were observed between the isoenzymes HXK-1 and HXK-2; in-gel mannokinase activity stain after IEF [11]: no differences in mannokinase activity were observed between the isoenzymes HXK-1 and HXK-2; in-gel mannokinase activity stain after IEF [12]: no differences in mannokinase activity were observed between the isoenzymes HXK-1 and HXK-2

From paper PMC3677594, “Characterization of a novel Entamoeba histolytica strain from Burkina Faso, Africa, possessing a unique hexokinase-2 gene” (Parasite, 2011)
